Paper PMC10054418, “Eighteen Novel Bioactive Peptides from Monkfish (Lophius litulon) Swim Bladders: Production, Identification, Antioxidant Activity, and Stability” (Marine Drugs, 2023)
Where two headings read alike, the source gives them in different places. Where a SMILES comes first, the peptide text is derived from it.

How the values were obtained:
H2O2-damaged HepG2 cells = assay: Cytoprotection on H2O2-damaged HepG2 cells (MTT); type: cell-based, Human
Method: […] Briefly, the HepG2 cells were incubated in a 96-well plate for 24 h. […] After removing peptides, H2O2 was added to the sample, GSH and model groups. After 24 h, the 96-wells were rinsed twice with PBS and used MTT method to determine the cell viability:Cell viability = (ODsample/ODcontrol) × 100%.

pepsin and trypsin = assay: Stability in simulated gastrointestinal (GI) digestion, read out as O2−· scavenging activity; conditions: 2 h of pepsin digestion, peptide 5.0 mg/mL
Method: The reaction was initiated by adding 1 mL of phenazine methosulphate (PMS) solution (120 μM) to the reaction mixture. The absorbance was measured at 560 nm against the corresponding blank after incubation for 5 min at 25 °C. The scavenging capacity of the O2−· was calculated using the following equation: O2−·scavengingactivity(%)=[(Ac−As)/Ac]×100%, where Ac is the absorbance without the sample and As is the absorbance with the sample.

[1] = cited from earlier work
From the text: DPPH· is a very stable radical and is commonly used as a substrate to assess antioxidant activity. MSP7 and MSP8 have a strong hydrogen donating capacity and can reduce stable DPPH·.

[2] = cited from earlier work; remark: listed apart in the source
From the text: HO· is a kind of strong free radical, which can not only cause lipid peroxidation in vivo but also attack polysaccharides, nucleic acids and other macromolecules, causing serious damage to cells.

[3] = cited from earlier work; remark: listed apart in the source
From the text: O2−· reacts with metal ions in the Fenton reaction to form HO· that triggers lipid peroxidation and causes oxidative damage to cells. MSP1, MSP2, MSP8, MSP10 and MSP13 have a strong ability to scavenge O2−· .

[4] = cited from earlier work; remark: listed apart in the source
From the text: ABTS^+· is a single oxygen ion radical with an absorption peak at 734 nm, which can be reduced by antioxidants leading to a decrease in absorbance.

[5] = APs from seaweed (Eucheuma cottonii)
[6] = APs from tuna (Katsuwonus pelamis) cardiac arterial bulbs
[7] = APs from tuna cardiac arterial bulbs
[8] = APs from Spanish mackerel (Scomberomorous niphonius) skin
[9] = APs from Antarctic krill (Euphausia superba)
[10] = APs from skin (printed after monkfish muscle)

## N[C@@H](Cc1ccc(O)cc1)C(=O)N[C@@H](CC(=O)O)C(=O)N[C@@H](Cc1ccc(O)cc1)C(=O)N[C@@H](CC(=O)O)C(=O)O [MSP1, Tyr-Asp-Tyr-Asp] (H-YDYD-OH)
H2O2-damaged HepG2 cells; peptide at 200 μmol/L, 8 h pre-incubation, then H2O2 (300 µM) 24 h, MTT, mean ± SD of triplicate, model group 51.08 ± 1.97%
  viability of H2O2-injured HepG2 cells: 82.14 ± 3.28%

## NC(=O)CC[C@H](N)C(=O)N[C@@H](CC(=O)O)C(=O)N[C@@H](Cc1ccc(O)cc1)C(=O)N[C@@H](CC(=O)O)C(=O)O [MSP2, Gln-Asp-Tyr-Asp] (H-QDYD-OH)
Pepsin and trypsin
  Declined percentage of O2−· scavenging activity, Treated with Pepsin: −15.13%

## N=C(N)NCCC[C@H](NC(=O)CN)C(=O)N[C@@H](Cc1c[nH]c2ccccc12)C(=O)O [MSP7, Gly-Arg-Trp] (H-Gly-Arg-Trp-OH)
Pepsin and trypsin
  Declined percentage of O2−· scavenging activity, Treated with Pepsin: −24.34%

## C[C@H](N)C(=O)N[C@@H](CCCNC(=N)N)C(=O)N[C@@H](Cc1c[nH]c2ccccc12)C(=O)O [MSP8, Ala-Arg-Trp] (H-Ala-Arg-Trp-OH)
Pepsin and trypsin
  Declined percentage of O2−· scavenging activity, Treated with Pepsin: −24.93%
H2O2-damaged HepG2 cells; 8 h, 200 μmol/L
  viability of H2O2-injured HepG2 cells: 81.32 ± 2.45%

## NCCCC[C@H](NC(=O)CNC(=O)CNC(=O)[C@H](CC(=O)O)NC(=O)[C@@H](N)CC(=O)O)C(=O)O [MSP10, Asp-Asp-Gly-Gly-Lys] (H-DDGGK-OH)
Pepsin and trypsin
  Declined percentage of O2−· scavenging activity, Treated with Pepsin: −21.98%

## EDIVCW [literature AP from monkfish muscle]
[1]; APs from monkfish muscle
  EC50 on DPPH·: 390 µg/mL
[2]; APs from monkfish muscle
  EC50 on HO·: 610 µg/mL
[3]; APs from monkfish muscle
  EC50 on O2−·: 760 µg/mL

## FYKA [literature AP from seaweed (Eucheuma cottonii)]
[1]; [5]
  EC50 on DPPH·: 2560 µg/mL
[3]; APs from seaweed
  EC50 on O2−·: 1910 µg/mL

## GEGQR [literature AP from tuna (Katsuwonus pelamis) cardiac arterial bulbs]
[1]; [6]
  EC50 on DPPH·: 2257 µg/mL
[4]; [7]
  EC50 on ABTS^+·: 1218 µg/mL
[3]; [7]
  EC50 on O2−·: 2143 µg/mL

## GEQSN [literature AP from tuna (Katsuwonus pelamis) cardiac arterial bulbs]
[1]; [6]
  EC50 on DPPH·: 2054 µg/mL
[3]; [7]
  EC50 on O2−·: 1857 µg/mL

## GHHAAA [literature AP from tuna milt (also printed under tuna roes)]
[4]; APs from tuna milt
  EC50 on ABTS^+·: 1120 µg/mL

## GPTGE [literature AP from Spanish mackerel (Scomberomorous niphonius) skin]
[1]; [8]
  EC50 on DPPH·: 1420 µg/mL

## IDSQ [literature AP from Antarctic krill (Euphausia superba)]
[2]; [9]
  EC50 on HO·: 2570 µg/mL
[3]; APs from Antarctic krill
  EC50 on O2−·: 1450 µg/mL

## IEEEQ [literature AP from red stingray (Dasyatis akajei) cartilages]
[4]; APs from red stingray (Dasyatis akajei) cartilages
  EC50 on ABTS^+·: 180 µg/mL

## PSYV [literature AP from loach (Misgurnus anguillicaudatus) meat]
[2]; AP from loach (Misgurnus anguillicaudatus) meat
  EC50 on HO·: 2640 µg/mL

## PYFK [literature AP from scalloped hammerhead sharks (Sphyrna lewini) muscle]
[1]; APs from scalloped hammerhead sharks (Sphyrna lewini) muscle
  EC50 on DPPH·: 4110 µg/mL
[4]; APs from scalloped hammerhead sharks muscle
  EC50 on ABTS^+·: 120 µg/mL

## PYGAKG [literature AP from Spanish mackerel (Scomberomorous niphonius) skin]
[1]; [8]
  EC50 on DPPH·: 3020 µg/mL

## SMDV [literature AP from tuna milt (also printed under tuna roes)]
[4]; APs from tuna milt
  EC50 on ABTS^+·: 1160 µg/mL

## VEKT [literature AP from Antarctic krill (Euphausia superba)]
[2]; [9]
  EC50 on HO·: 1530 µg/mL
[3]; APs from Antarctic krill
  EC50 on O2−·: 860 µg/mL

## VGGRP [literature AP from grass carp (Ctenopharyngodon idella) skin]
[2]; AP from grass carp (Ctenopharyngodon idella) skin
  EC50 on HO·: 2060 µg/mL

## YGPM [literature AP from Spanish mackerel skin]
[1]; [8]
  EC50 on DPPH·: 720 µg/mL
[4]; APs from monkfish skin as printed
  EC50 on ABTS^+·: 820 µg/mL
[2]; [10]
  EC50 on HO·: 880 µg/mL
[3]; [10]
  EC50 on O2−·: 730 µg/mL

## YSKT [literature AP from seaweed (Eucheuma cottonii)]
[1]; [5]
  EC50 on DPPH·: 1710 µg/mL

## YWDAW [literature AP from monkfish muscle]
[1]; APs from monkfish muscle
  EC50 on DPPH·: 510 µg/mL
[2]; APs from monkfish muscle
  EC50 on HO·: 320 µg/mL
[3]; APs from monkfish muscle
  EC50 on O2−·: 480 µg/mL
